The source of these data is PubChem BioAssay (NCI).

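Protocol summary: plate cells (96-well), add compound at 5 concentrations, incubate 48 h, interpolate endpoints linearly. TGI is the concentration that stops growth completely.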 Bounds are passed on as bounds.

Holding throughout (experiment): NCI-60 cell line screen, 48 h
Experiment [1] has as its system HCT-116 colon.
Experiment [2] relates to MDA-MB-435.
The test system of experiment [3] is HT29 colon.
The subject of experiment [4] is SR leukemia.
Experiment [5] deals with A498 renal.
The subject of experiment [6] is OVCAR-5 ovarian.
Experiment [7] concerns SK-MEL-2 melanoma.
Experiment [8] concerns HOP-62 NSCLC.
For experiment [9], the system named is HCT-15 colon.
Experiment [10] relates to MOLT-4 leukemia.

In the case of `CCC(C(=O)C(=O)OC)P1(=O)OC(C)(C)CN1C(C)(C)C` (configuration not stated), the TGI in experiment [1] is > 100 µM; in [2] it was > 100 µM; in experiment [3], > 100 µM; in [4] it was > 100 µM; in experiment [5], 53.1 µM; in experiment [6], > 100 µM. Besides, the TGI in [7], in [8], in experiment [9] and in [10] was > 100 µM each time.
For `CC(=O)c1cnc2oc3ccc(O)cc3c2c1-c1ccccc1`, the TGI was > 100 µM in experiment [1]; > 100 µM in experiment [2]; > 100 µM in [3]; > 100 µM in experiment [4]; 88.6 µM in experiment [5]; > 100 µM in [6]. Also, the TGI in experiment [7], in experiment [9] and in experiment [10] was > 100 µM each time.
With `C1=C\SS/C=C\SS/1`, the TGI in experiment [1] was > 100 µM; in experiment [2], > 100 µM; in experiment [3], 35.6 µM; in experiment [4] it was > 100 µM; in experiment [5] it was > 100 µM; in experiment [6] it was > 100 µM. The TGI in [7] was > 100 µM; in [8] it was > 100 µM; in [9], 34 µM; in experiment [10], 78.7 µM.
Consider `[O-]/[N+](=C\c1ccccc1OC(=S)S)c1ccc(Cl)cc1`, for which the TGI in experiment [1] was 72.7 µM; in experiment [2] it was 47.3 µM; in [3] it was > 100 µM; in experiment [4], > 100 µM; in [5], > 100 µM; in experiment [6], > 100 µM. Moreover, the TGI in experiment [7], in [8], in experiment [9] and in experiment [10] was > 100 µM in each case.
As to `CN(C)CC1CCC(CN(C)C)C1=O` (configuration not stated), the TGI in [1] is 5.23 µM; in experiment [2] it was > 100 µM; in experiment [3] it was 16.2 µM; in experiment [4], > 100 µM; in experiment [5], > 58.9 µM; in experiment [6] it was 20.3 µM. The TGI in experiment [7] is 21.6 µM; in experiment [8], > 68 µM; in experiment [9] it was 4.82 µM; in experiment [10], 4.03 µM.
In the case of `CCOC(=O)/C=C(\C(=O)OCC)n1ccc(=O)n(Cc2cn(COCCOC(C)=O)nn2)c1=O`, the TGI is 33 µM in [1]; 37 µM in [2]; 30.8 µM in experiment [3]; 52.9 µM in experiment [4]; > 69.5 µM in [5]; 55.2 µM in [6]. Further, the TGI in [7] is 47.7 µM; in [8], > 100 µM; in experiment [9], 38 µM; in experiment [10] it was 39.3 µM.
With `CC(NC(=O)N(C)C)NC(=O)N(C)C`, the TGI in [1], in experiment [2], in [3], in [4], in experiment [5] and in [7] was > 10 µM throughout. Besides, the TGI in [8], in experiment [9] and in experiment [10] was > 10 µM in each case.
In the case of `COC1=C(C)C(=O)c2c(c(COC(N)=O)c3n2CC(OC(C)=O)C3OC(C)=O)C1=O` (configuration not stated), the TGI in experiment [1] is 0.129 µM; in experiment [2], 0.415 µM; in experiment [3] it was 0.25 µM; in experiment [4] it was 0.0442 µM; in experiment [5] it was 1.34 µM; in [6], 0.652 µM. The TGI turned out to be 0.387 µM in experiment [7], 0.563 µM in experiment [8], 0.0692 µM in [9] and 2.03 µM in experiment [10].
Take `OCc1ccc2c(c1)CC1(Cc3ccc(/C=N/O)cc3C1)C2` (configuration not stated): the TGI is > 100 µM in [1]; 1.51 µM in [2]; 11.4 µM in experiment [3]; > 100 µM in experiment [4]; 96.5 µM in experiment [5]; > 87.7 µM in experiment [6]. Also, the TGI is 42.3 µM in experiment [7], > 76.7 µM in experiment [8], > 45.1 µM in experiment [9] and > 40.4 µM in experiment [10].
For `Cc1cnc2c(c1)C(=O)C1=C(C2=O)C2OC(=O)CC2OC1(C)C` (configuration not stated), the TGI came out at 0.399 µM in experiment [1]; 0.912 µM in [2]; 1.25 µM in [3]; 0.29 µM in [4]; 3.75 µM in [5]; 0.951 µM in [6]. For the same compound, the TGI came out at 2.76 µM in experiment [7], 2.58 µM in [8] and 0.202 µM in experiment [9].
In the case of `Nc1nn2c(=O)c3ccccc3nc2s1`, the TGI is > 100 µM in experiment [1]; > 100 µM in experiment [2]; > 100 µM in experiment [3]; 44.7 µM in experiment [4]; > 100 µM in [5]; > 100 µM in experiment [6]. Also, the TGI is > 100 µM in experiment [7], > 100 µM in experiment [8], > 100 µM in experiment [9] and 53.1 µM in experiment [10].
With `Oc1[nH]c2ccccc2c1N=NC(=S)Nc1ccc(Cl)cc1`, the TGI in [1] was > 100 µM; in experiment [2], > 100 µM; in experiment [3] it was > 100 µM; in experiment [4] it was > 100 µM; in experiment [5], 63 µM; in experiment [6] it was > 100 µM. Moreover, the TGI in experiment [7], in [8], in experiment [9] and in [10] was > 100 µM throughout.
As to `COCCOCCOC1=CC(=O)c2c(O)ccc(O)c2C1=O`, the TGI in experiment [1] was found to be 1.05 µM; in [2] it was 0.108 µM; in experiment [3], 1.79 µM; in experiment [4], 5.03 µM; in [5], 5.08 µM; in [7] it was 3.47 µM. The TGI in experiment [8] stood at 3.44 µM; in [10], 5.56 µM.
On to `COc1cc(NC(C)=O)ccc1C(=O)NN1C(=O)/C(=C/c2ccco2)N=C1c1ccccc1`, for which the TGI in experiment [1], in [2], in experiment [3], in [4], in experiment [5] and in experiment [6] was > 50 µM throughout. In addition, the TGI in experiment [7] is > 50 µM; in experiment [8], > 50 µM; in [9], > 50 µM; in [10], 45.6 µM.
Turning to `N#Cc1nc(C2CCC2)oc1N`, the TGI in experiment [1], in experiment [2], in experiment [3], in experiment [4], in experiment [5] and in experiment [6] was > 100 µM each time. In addition, the TGI in experiment [7], in experiment [8], in [9] and in experiment [10] was > 100 µM each time.
`COc1cc2ccc1OCc1cccc(n1)COc1ccc(cc1OC)C=Nc1ccc(cc1)N=C2`: the TGI in experiment [1], in experiment [2], in experiment [3], in [4], in [5] and in [6] was > 100 µM in each case. Moreover, the TGI in experiment [7], in experiment [8], in experiment [9] and in experiment [10] was > 100 µM each time.
On to `COc1ccc(CC2COc3cc(O)cc(O)c3C2=O)cc1O` (configuration not stated), for which the TGI in [2] was 3.68 µM; in experiment [3] it was 27.5 µM; in [4], > 100 µM; in experiment [5], > 100 µM; in [6] it was > 100 µM; in experiment [7] it was > 100 µM. In addition, the TGI in experiment [8], in experiment [9] and in [10] was > 100 µM in each case.
Turning to `COc1ccc(C2c3cc4c(cc3OC(N3CCOCC3)C2C)OCO4)c(OC)c1OC` (configuration not stated), the TGI was found to be 22.3 µM in experiment [1]; 7.01 µM in [2]; 52.2 µM in experiment [3]; 35.6 µM in experiment [4]; 74.3 µM in experiment [6]; 36.2 µM in experiment [7]. For the same compound, the TGI was > 100 µM in experiment [8], > 100 µM in experiment [9] and 34 µM in experiment [10].
For the compound `O=c1cc(N2CCCC2)[nH]c(=O)n1-c1ccccc1`, the TGI in experiment [1], in [2], in [3], in experiment [4], in [6] and in [7] was > 100 µM in each case. In addition, the TGI in experiment [8], in experiment [9] and in [10] was > 100 µM each time.
`COc1ccc(N(C(=O)Nc2ccc(Cl)c(Cl)c2)C2c3cccn3C(=O)N2c2ccc(Cl)c(Cl)c2)cc1` (configuration not stated): the TGI in experiment [1], in experiment [2], in experiment [3], in experiment [4], in [5] and in experiment [6] was > 100 µM each time. Besides, the TGI in [7], in [9] and in experiment [10] was > 100 µM throughout.
With `CO[C@]12C[C@H](CNC(=O)c3ccc[nH]3)O[C@H]1NC(=O)N2`, the TGI in experiment [1], in experiment [2], in [3], in experiment [4], in experiment [5] and in [6] was > 100 µM throughout. In addition, the TGI in experiment [7], in [8] and in experiment [9] was > 100 µM in each case.
`CO[C@@H]1O[C@H](C(=O)c2ccccc2)[C@H]2OC(C)(C)O[C@@H]12`: the TGI in [1], in [2], in experiment [4], in [5], in experiment [6] and in experiment [7] was > 100 µM throughout. In addition, the TGI in experiment [8], in [9] and in experiment [10] was > 100 µM in each case.
Take `C[C@H]1SC(c2ccc(Cl)cc2Cl)N(NC(=O)c2ccncc2)C1=O` (some centres not stated): the TGI in [1] was 60.4 µM; in experiment [2] it was 75.3 µM; in [3], > 100 µM; in experiment [4] it was > 100 µM; in experiment [5] it was 78.4 µM; in [6], > 100 µM. Also, the TGI was 58.3 µM in experiment [7], 94.3 µM in [8] and > 100 µM in experiment [9].
Take `COc1c(O)c2c(=O)cc(OC)c3c4c(OC)cc(=O)c5c(O)c(OC)c6c(c(c1C(C(C)O)C6C(C)O)c23)c54` (configuration not stated): the TGI in [1] was 6.18 µM; in [2], 5.44 µM; in experiment [3] it was 3.71 µM; in experiment [4], 5.37 µM; in experiment [5], 3.45 µM; in [6], 7.62 µM. Moreover, the TGI in experiment [7] is 3.73 µM; in experiment [8] it was 2.02 µM; in experiment [10] it was 1.25 µM.
As to `O=c1cc(-c2ccccc2)oc2c(-c3cc(Cl)cc4c(=O)cc(-c5ccccc5)oc34)cc(Cl)cc12`, the TGI in experiment [2] is > 100 µM; in experiment [3], > 100 µM; in experiment [4], > 100 µM; in [5] it was 56.7 µM; in [6], > 100 µM; in experiment [7], > 100 µM. Also, the results for the TGI in experiment [8], in [9] and in experiment [10] were > 100 µM, > 100 µM and 52.1 µM, respectively.
For the compound `CC(C(=O)O)C(C)(O)C(=O)O` (configuration not stated), the TGI in [1], in experiment [2], in experiment [3], in experiment [4], in experiment [5] and in [6] was > 100 µM each time. Moreover, the TGI in experiment [7], in experiment [9] and in experiment [10] was > 100 µM throughout.
`O=C1CSC2=NC3=C(COC/C3=C\c3ccc(Br)cc3)C(c3ccc(Br)cc3)N12` (configuration not stated): the TGI is > 100 µM in experiment [1]; > 100 µM in experiment [2]; 60.9 µM in [4]; > 100 µM in experiment [5]; > 100 µM in [6]; > 100 µM in [7]. In addition, the TGI in experiment [8] is > 100 µM; in [9] it was > 100 µM; in experiment [10] it was 64.2 µM.
As for `C=C1c2nc3ccccc3n2C=C(c2ccc(Cl)cc2)N1c1ccc(OC)cc1`, the TGI was 21.6 µM in experiment [1]; 30.5 µM in experiment [2]; > 100 µM in experiment [4]; > 100 µM in experiment [5]; 35 µM in [6]; 66.5 µM in experiment [7]. Moreover, the figures for the TGI in experiment [9] and in experiment [10] were 22.5 µM and > 100 µM, respectively.
